Reference: patent publication US8247211B2, “Glycopeptide antibiotics” (American Cyanamid Company, priority 2001, dated 2012)
Values after ≈ are worked out from the molar mass of the structure shown.

Legend:
Experiment in all cases: In vitro antibacterial evaluation: minimum inhibitory concentration (MIC), broth dilution method
Type in all cases: cell-based
Enterococcus sp. = details: 18 hours at 35° C.
In short: (§1)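 NCCLS M7-A2 broth dilution with Mueller-Hinton II, testing 64-0.06 μg/mL antibiotic against 5×10^5 CFU/mL inocula. Test strains include recent methicillin-, penicillin- or vancomycin-resistant clinical isolates. MIC is the lowest concentration preventing growth.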

Escherichia coli = details: 18 hours at 35° C.
In short: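 MIC read as lowest drug level preventing visible growth. Organisms at 5×10^5 CFU/mL were exposed to a 64-0.06 μg/mL dilution series in Muller-Hinton II […] following NCCLS broth dilution standard M7-A2.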

Staphylococcus sp. = tested on: Staphylococcus sp.
In short: as §1

Streptococcus sp. = details: 18 hours at 35° C.
In short: as §1

[1] = broth dilution, inoculum 5×10^5 CFU/mL

## N=C1NCC(C(O)C2NC(=O)C(CC3CCC(OC4OC(CO)C(OC5OC6COC7(OC6C(O)C5O)C5CC6CC(C5)CC7C6)C(O)C4O)CC3)NC(=O)C(CC3CCCCC3)NC(=O)CNC(=O)C(CO)NC(=O)C(C(O)C3CNC(=N)N3C3OC(CO)C(O)C(O)C3O)NC2=O)N1 (stereo not drawn) [Example 222]
Enterococcus sp.; Enterococcus avium (GC 4558)
  MIC Enterococcus avium (GC 4558): 64 µg/mL (≈ 44.9 µM)
Enterococcus sp.; Enterococcus faecalis (ATCC 29212)
  MIC Enterococcus faecalis (ATCC 29212): >64 µg/mL
Enterococcus sp.; Enterococcus faecalis (GC 2242)
  MIC Enterococcus faecalis (GC 2242): >64 µg/mL
Enterococcus sp.; Enterococcus faecalis (GC 2691)
  MIC Enterococcus faecalis (GC 2691): >64 µg/mL
Enterococcus sp.; Enterococcus faecalis (GC 3059)
  MIC Enterococcus faecalis (GC 3059): >64 µg/mL
Enterococcus sp.; Enterococcus faecalis (GC 4552)
  MIC Enterococcus faecalis (GC 4552): >64 µg/mL
Enterococcus sp.; Enterococcus faecalis (GC 4553)
  MIC Enterococcus faecalis (GC 4553): >64 µg/mL
Enterococcus sp.; Enterococcus faecalis (GC 4554)
  MIC Enterococcus faecalis (GC 4554): >64 µg/mL
Enterococcus sp.; Enterococcus faecalis (GC 6189)
  MIC Enterococcus faecalis (GC 6189): >64 µg/mL
Enterococcus sp.; Enterococcus faecium (GC 2243)
  MIC Enterococcus faecium (GC 2243): >64 µg/mL
Enterococcus sp.; Enterococcus faecium (GC 4556)
  MIC Enterococcus faecium (GC 4556): >64 µg/mL
Enterococcus sp.; Enterococcus faecium (GC 4557)
  MIC Enterococcus faecium (GC 4557): 64 µg/mL (≈ 44.9 µM)
Enterococcus sp.; [1]
  MIC Enterococcus avium (GC 4558): 64 µg/mL (≈ 44.9 µM)
  MIC Enterococcus faecalis (ATCC 29212): >64 µg/mL
  MIC Enterococcus faecalis (GC 2242): >64 µg/mL
  MIC Enterococcus faecalis (GC 2691): >64 µg/mL
  MIC Enterococcus faecalis (GC 3059): >64 µg/mL
  MIC Enterococcus faecalis (GC 4552): >64 µg/mL
  MIC Enterococcus faecalis (GC 4553): >64 µg/mL
  MIC Enterococcus faecalis (GC 4554): >64 µg/mL
  MIC Enterococcus faecalis (GC 6189): >64 µg/mL
  MIC Enterococcus faecium (GC 2243): >64 µg/mL
  MIC Enterococcus faecium (GC 4556): >64 µg/mL
  MIC Enterococcus faecium (GC 4557): 64 µg/mL (≈ 44.9 µM)
Escherichia coli; Escherichia coli (ATCC 25922)
  MIC Escherichia coli (ATCC 25922): >64 µg/mL
Escherichia coli; Escherichia coli (GC 4559)
  MIC Escherichia coli (GC 4559): >64 µg/mL
Escherichia coli; Escherichia coli (GC 4560)
  MIC Escherichia coli (GC 4560): 64 µg/mL (≈ 44.9 µM)
Staphylococcus sp.; strain ATCC 29213
  MIC Staphylococcus aureus (ATCC 29213): >64 µg/mL
Staphylococcus sp.; strain GC 1131
  MIC Staphylococcus aureus (GC 1131): >64 µg/mL
Staphylococcus sp.; strain GC 3051
  MIC Staphylococcus aureus (GC 3051): >64 µg/mL
Staphylococcus sp.; strain GC 3053
  MIC Staphylococcus aureus (GC 3053): >64 µg/mL
Staphylococcus sp.; strain GC 4541
  MIC Staphylococcus aureus (GC 4541): >64 µg/mL
Staphylococcus sp.; strain GC 4542
  MIC Staphylococcus aureus (GC 4542): >64 µg/mL
Staphylococcus sp.; strain GC 4543
  MIC Staphylococcus aureus-SMITH (GC 4543): >64 µg/mL
Staphylococcus sp.; strain GC 4544
  MIC Staphylococcus aureus (GC 4544): >64 µg/mL
Staphylococcus sp.; strain GC 4545
  MIC Staphylococcus aureus (GC 4545): >64 µg/mL
Staphylococcus sp.; strain GC 4546
  MIC Staphylococcus haemolyticus (GC 4546): >64 µg/mL
Staphylococcus sp.; strain GC 4547
  MIC Coagulase Negative Staphylococcus (GC 4547): >64 µg/mL
Staphylococcus sp.; strain GC 4548
  MIC Coagulase Negative Staphylococcus (GC 4548): >64 µg/mL
Staphylococcus sp.; strain GC 4549
  MIC Coagulase Negative Staphylococcus (GC 4549): >64 µg/mL
Staphylococcus sp.; strain GC 4551
  MIC Coagulase Negative Staphylococcus (GC 4551): >64 µg/mL
Streptococcus sp.; Streptococcus agalactiae (GC 4564)
  MIC Streptococcus agalactiae (GC 4564): >64 µg/mL
Streptococcus sp.; Streptococcus pneumoniae (ATCC 6301)
  MIC Streptococcus pneumoniae (ATCC 6301): 64 µg/mL (≈ 44.9 µM)
Streptococcus sp.; Streptococcus pneumoniae (GC 1894)
  MIC Streptococcus pneumoniae (GC 1894): 32 µg/mL (≈ 22.4 µM)
Streptococcus sp.; Streptococcus pneumoniae (GC 4565)
  MIC Streptococcus pneumoniae (GC 4565): 64 µg/mL (≈ 44.9 µM)
Streptococcus sp.; Streptococcus pyogenes (GC 4563)
  MIC Streptococcus pyogenes (GC 4563): 64 µg/mL (≈ 44.9 µM)
Streptococcus sp.; [1]
  MIC Streptococcus agalactiae (GC 4564): >64 µg/mL
  MIC Streptococcus pneumoniae (ATCC 6301): 64 µg/mL (≈ 44.9 µM)
  MIC Streptococcus pneumoniae (GC 1894): 32 µg/mL (≈ 22.4 µM)
  MIC Streptococcus pneumoniae (GC 4565): 64 µg/mL (≈ 44.9 µM)
  MIC Streptococcus pyogenes (GC 4563): 64 µg/mL (≈ 44.9 µM)
